Laboratory results published in patent US8247211B2, “Glycopeptide antibiotics” (American Cyanamid Company, priority 2001, dated 2012).
Converted amounts (≈) assume the structure as drawn.

How the values were obtained:
Assay in all cases: In vitro antibacterial evaluation: minimum inhibitory concentration (MIC), broth dilution method
Format in all cases: cell-based
Streptococcus sp. = system: Streptococcus sp.
Procedure, shortened: (§1)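 Inoculum: 5×10^5 CFU/mL. Range: 64-0.06 μg/mL. Medium: Muller-Hinton II […]; NCCLS M7-A2 broth dilution. Endpoint: lowest concentration inhibiting growth. Strains include methicillin-, penicillin- and/or vancomycin-resistant clinical isolates.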

Staphylococcus sp. = settings: broth dilution, 18 hours at 35° C.
Procedure, shortened: as §1

Escherichia coli = system: Escherichia coli
Procedure, shortened: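 NCCLS M7-A2 broth dilution with Mueller-Hinton II, testing 64-0.06 μg/mL antibiotic against 5×10^5 CFU/mL inocula. Test strains include recent methicillin-, penicillin- or vancomycin-resistant clinical isolates. MIC is the lowest concentration preventing growth.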

Enterococcus sp. = system: Enterococcus sp.
Procedure, shortened: as §1

[1] = broth dilution, inoculum 5×10^5 CFU/mL, 18 hours at 35° C.

SMILES: CC(C)=CCOc1cccc(C2OCC3OC(OC4C(CO)OC(Oc5ccc(CC6NC(=O)C(C(C)c7ccccc7)NC(=O)CNC(=O)C(CO)NC(=O)C(C(O)C7CNC(=N)N7C7OC(CO)C(O)C(O)C7O)NC(=O)C(C(O)C7CNC(=N)N7)NC6=O)cc5)C(O)C4O)C(O)C(O)C3O2)c1 (stereo not shown) [Example 165]
- MIC Streptococcus agalactiae (GC 4564) (Streptococcus sp.; [1]): 1 µg/mL (≈ 0.681 µM)
- MIC Streptococcus pneumoniae (ATCC 6301) (Streptococcus sp.; [1]): 0.12 µg/mL (≈ 0.0818 µM)
- MIC Streptococcus pneumoniae (GC 1894) (Streptococcus sp.; [1]): <0.06 µg/mL
- MIC Streptococcus pneumoniae (GC 4565) (Streptococcus sp.; [1]): 0.12 µg/mL (≈ 0.0818 µM)
- MIC Streptococcus pyogenes (GC 4563) (Streptococcus sp.; [1]): 0.12 µg/mL (≈ 0.0818 µM)
- MIC Streptococcus pneumoniae (ATCC 6301) (Streptococcus sp.; strain ATCC 6301): 0.12 µg/mL (≈ 0.0818 µM)
- MIC Streptococcus pneumoniae (GC 1894) (Streptococcus sp.; strain GC 1894): <0.06 µg/mL
- MIC Streptococcus pyogenes (GC 4563) (Streptococcus sp.; strain GC 4563): 0.12 µg/mL (≈ 0.0818 µM)
- MIC Streptococcus agalactiae (GC 4564) (Streptococcus sp.; strain GC 4564): 1 µg/mL (≈ 0.681 µM)
- MIC Streptococcus pneumoniae (GC 4565) (Streptococcus sp.; strain GC 4565): 0.12 µg/mL (≈ 0.0818 µM)
- MIC Coagulase Negative Staphylococcus (GC 4547) (Staphylococcus sp.; 5×10^5 CFU/mL): 16 µg/mL (≈ 10.9 µM)
- MIC Coagulase Negative Staphylococcus (GC 4548) (Staphylococcus sp.; 5×10^5 CFU/mL): 8 µg/mL (≈ 5.45 µM)
- MIC Coagulase Negative Staphylococcus (GC 4549) (Staphylococcus sp.; 5×10^5 CFU/mL): 8 µg/mL (≈ 5.45 µM)
- MIC Coagulase Negative Staphylococcus (GC 4551) (Staphylococcus sp.; 5×10^5 CFU/mL): 16 µg/mL (≈ 10.9 µM)
- MIC Coagulase Negative Staphylococcus (GC 6257) (Staphylococcus sp.; 5×10^5 CFU/mL): 8 µg/mL (≈ 5.45 µM)
- MIC Staphylococcus aureus (ATCC 29213) (Staphylococcus sp.; 5×10^5 CFU/mL): 16 µg/mL (≈ 10.9 µM)
- MIC Staphylococcus aureus (GC 1131) (Staphylococcus sp.; 5×10^5 CFU/mL): 16 µg/mL (≈ 10.9 µM)
- MIC Staphylococcus aureus (GC 3051) (Staphylococcus sp.; 5×10^5 CFU/mL): 32 µg/mL (≈ 21.8 µM)
- MIC Staphylococcus aureus (GC 3053) (Staphylococcus sp.; 5×10^5 CFU/mL): 16 µg/mL (≈ 10.9 µM)
- MIC Staphylococcus aureus (GC 4541) (Staphylococcus sp.; 5×10^5 CFU/mL): 16 µg/mL (≈ 10.9 µM)
- MIC Staphylococcus aureus (GC 4542) (Staphylococcus sp.; 5×10^5 CFU/mL): 16 µg/mL (≈ 10.9 µM)
- MIC Staphylococcus aureus (GC 4544) (Staphylococcus sp.; 5×10^5 CFU/mL): 16 µg/mL (≈ 10.9 µM)
- MIC Staphylococcus aureus (GC 4545) (Staphylococcus sp.; 5×10^5 CFU/mL): 16 µg/mL (≈ 10.9 µM)
- MIC Staphylococcus aureus-SMITH (GC 4543) (Staphylococcus sp.; 5×10^5 CFU/mL): 16 µg/mL (≈ 10.9 µM)
- MIC Staphylococcus haemolyticus (GC 4546) (Staphylococcus sp.; 5×10^5 CFU/mL): 16 µg/mL (≈ 10.9 µM)
- MIC Staphylococcus aureus (ATCC 29213) (Staphylococcus sp.; strain ATCC 29213): 16 µg/mL (≈ 10.9 µM)
- MIC Staphylococcus aureus (GC 1131) (Staphylococcus sp.; strain GC 1131): 16 µg/mL (≈ 10.9 µM)
- MIC Staphylococcus aureus (GC 3051) (Staphylococcus sp.; strain GC 3051): 32 µg/mL (≈ 21.8 µM)
- MIC Staphylococcus aureus (GC 3053) (Staphylococcus sp.; strain GC 3053): 16 µg/mL (≈ 10.9 µM)
- MIC Staphylococcus aureus (GC 4541) (Staphylococcus sp.; strain GC 4541): 16 µg/mL (≈ 10.9 µM)
- MIC Staphylococcus aureus (GC 4542) (Staphylococcus sp.; strain GC 4542): 16 µg/mL (≈ 10.9 µM)
- MIC Staphylococcus aureus-SMITH (GC 4543) (Staphylococcus sp.; strain GC 4543): 16 µg/mL (≈ 10.9 µM)
- MIC Staphylococcus aureus (GC 4544) (Staphylococcus sp.; strain GC 4544): 16 µg/mL (≈ 10.9 µM)
- MIC Staphylococcus aureus (GC 4545) (Staphylococcus sp.; strain GC 4545): 16 µg/mL (≈ 10.9 µM)
- MIC Staphylococcus haemolyticus (GC 4546) (Staphylococcus sp.; strain GC 4546): 16 µg/mL (≈ 10.9 µM)
- MIC Coagulase Negative Staphylococcus (GC 4547) (Staphylococcus sp.; strain GC 4547): 16 µg/mL (≈ 10.9 µM)
- MIC Coagulase Negative Staphylococcus (GC 4548) (Staphylococcus sp.; strain GC 4548): 8 µg/mL (≈ 5.45 µM)
- MIC Coagulase Negative Staphylococcus (GC 4549) (Staphylococcus sp.; strain GC 4549): 8 µg/mL (≈ 5.45 µM)
- MIC Coagulase Negative Staphylococcus (GC 4551) (Staphylococcus sp.; strain GC 4551): 16 µg/mL (≈ 10.9 µM)
- MIC Coagulase Negative Staphylococcus (GC 6257) (Staphylococcus sp.; strain GC 6257): 8 µg/mL (≈ 5.45 µM)
- MIC Escherichia coli (ATCC 25922) (Escherichia coli; strain ATCC 25922): >64 µg/mL
- MIC Escherichia coli (GC 4559) (Escherichia coli; strain GC 4559): >64 µg/mL
- MIC Escherichi coli (GC 4560) (Escherichia coli; strain GC 4560): 16 µg/mL (≈ 10.9 µM)
- MIC Enterococcus avium (GC 4558) (Enterococcus sp.; [1]): 16 µg/mL (≈ 10.9 µM)
- MIC Enterococcus faecalis (ATCC 29212) (Enterococcus sp.; [1]): 16 µg/mL (≈ 10.9 µM)
- MIC Enterococcus faecalis (GC 2242) (Enterococcus sp.; [1]): 16 µg/mL (≈ 10.9 µM)
- MIC Enterococcus faecalis (GC 2691) (Enterococcus sp.; [1]): 16 µg/mL (≈ 10.9 µM)
- MIC Enterococcus faecalis (GC 3059) (Enterococcus sp.; [1]): 16 µg/mL (≈ 10.9 µM)
- MIC Enterococcus faecalis (GC 4552) (Enterococcus sp.; [1]): 16 µg/mL (≈ 10.9 µM)
- MIC Enterococcus faecalis (GC 4553) (Enterococcus sp.; [1]): 16 µg/mL (≈ 10.9 µM)
- MIC Enterococcus faecalis (GC 4554) (Enterococcus sp.; [1]): 32 µg/mL (≈ 21.8 µM)
- MIC Enterococcus faecalis (GC 6189) (Enterococcus sp.; [1]): 16 µg/mL (≈ 10.9 µM)
- MIC Enterococcus faecium (GC 2243) (Enterococcus sp.; [1]): 16 µg/mL (≈ 10.9 µM)
- MIC Enterococcus faecium (GC 4556) (Enterococcus sp.; [1]): 16 µg/mL (≈ 10.9 µM)
- MIC Enterococcus faecium (GC 4557) (Enterococcus sp.; [1]): 16 µg/mL (≈ 10.9 µM)
- MIC Enterococcus faecalis (ATCC 29212) (Enterococcus sp.; strain ATCC 29212): 16 µg/mL (≈ 10.9 µM)
- MIC Enterococcus faecalis (GC 2242) (Enterococcus sp.; strain GC 2242): 16 µg/mL (≈ 10.9 µM)
- MIC Enterococcus faecium (GC 2243) (Enterococcus sp.; strain GC 2243): 16 µg/mL (≈ 10.9 µM)
- MIC Enterococcus faecalis (GC 2691) (Enterococcus sp.; strain GC 2691): 16 µg/mL (≈ 10.9 µM)
- MIC Enterococcus faecalis (GC 3059) (Enterococcus sp.; strain GC 3059): 16 µg/mL (≈ 10.9 µM)
- MIC Enterococcus faecalis (GC 4552) (Enterococcus sp.; strain GC 4552): 16 µg/mL (≈ 10.9 µM)
- MIC Enterococcus faecalis (GC 4553) (Enterococcus sp.; strain GC 4553): 16 µg/mL (≈ 10.9 µM)
- MIC Enterococcus faecalis (GC 4554) (Enterococcus sp.; strain GC 4554): 32 µg/mL (≈ 21.8 µM)
- MIC Enterococcus faecium (GC 4556) (Enterococcus sp.; strain GC 4556): 16 µg/mL (≈ 10.9 µM)
- MIC Enterococcus faecium (GC 4557) (Enterococcus sp.; strain GC 4557): 16 µg/mL (≈ 10.9 µM)
- MIC Enterococcus avium (GC 4558) (Enterococcus sp.; strain GC 4558): 16 µg/mL (≈ 10.9 µM)
- MIC Enterococcus faecalis (GC 6189) (Enterococcus sp.; strain GC 6189): 16 µg/mL (≈ 10.9 µM)
